Assay results reported in US20210338846A1, “COMPETITIVE PROSTATE-SPECIFIC MEMBRANE ANTIGEN (PSMA) BINDING AGENTS FOR REDUCTION OF NON-TARGET ORGAN UPTAKE OF RADIOLABELED PSMA INHIBITORS FOR PSMA POSITIVE TUMOR IMAGING AND RADIOPHARMACEUTICAL THERAPY” (The Johns Hopkins University, priority 2018, published 2021).
Like-named read-outs stand apart in the source and are kept apart here.

Test system: PSMA+ PC-3 PiP and PSMA− PC-3 flu tumors
[1] = 1 h, co-injection 0.5 nmole YC-I-27
[2] = 4 h, co-injection 0.5 nmole YC-I-27
[3] = 24 h, co-injection 0.5 nmole YC-I-27
[4] = 2 hours (footnote a), co-injection 0.5 nmole YC-I-27

O=C(O)CC[C@H](NC(=O)N[C@@H](CCCCN(Cc1ccc([125I])cc1)C(=O)CCCCNC(=O)CN1CCN(CC(=O)O)CCN(CC(=O)O)CCN(CC(=O)O)CC1)C(=O)O)C(=O)O [[^125I]VK-02-90]
Biodistribution: Blood (1 h, No CI): 1.1 ± 0.3 % injected dose/gram
Biodistribution: Flu tumor (1 h, No CI): 1.4 ± 0.6 % injected dose/gram
Biodistribution: Lacrimal gland (1 h, No CI): 17.4 ± 6.0 % injected dose/gram
Biodistribution: PiP tumor (1 h, No CI): 58 ± 14 % injected dose/gram
Biodistribution: Salivary gland (1 h, No CI): 5.1 ± 3.4 % injected dose/gram
Biodistribution: kidneys (1 h, No CI): 194 ± 25 % injected dose/gram
Biodistribution: spleen (1 h, No CI): 40 ± 16 % injected dose/gram
Biodistribution: stomach (1 h, No CI): 1.1 ± 0.3 % injected dose/gram
Biodistribution: Blood [1]: 0.45 ± 0.06 % injected dose/gram
Biodistribution: Flu tumor [1]: 0.37 ± 0.05 % injected dose/gram
Biodistribution: Lacrimal gland [1]: 0.75 ± 0.33 % injected dose/gram
Biodistribution: PiP tumor [1]: 35 ± 10 % injected dose/gram
Biodistribution: Salivary gland [1]: 0.46 ± 0.06 % injected dose/gram
Biodistribution: kidneys [1]: 10.0 ± 1.1 % injected dose/gram
Biodistribution: spleen [1]: 0.8 ± 0.14 % injected dose/gram
Biodistribution: stomach [1]: 0.33 ± 0.07 % injected dose/gram
Biodistribution: thyroid [1]: 0.5 ± 0.3 % injected dose/gram
Biodistribution: Blood (4 h, No CI): 0.2 ± 0.03 % injected dose/gram
Biodistribution: Flu tumor (4 h, No CI): 0.3 ± 0.1 % injected dose/gram
Biodistribution: Lacrimal gland (4 h, No CI): 1.9 ± 0.5 % injected dose/gram
Biodistribution: PiP tumor (4 h, No CI): 38 ± 13 % injected dose/gram
Biodistribution: Salivary gland (4 h, No CI): 0.7 ± 0.2 % injected dose/gram
Biodistribution: kidneys (4 h, No CI): 162 ± 3.5 % injected dose/gram
Biodistribution: spleen (4 h, No CI): 4.7 ± 1.2 % injected dose/gram
Biodistribution: stomach (4 h, No CI): 0.4 ± 0.2 % injected dose/gram
Biodistribution: Blood [2]: 0.02 ± 0.004 % injected dose/gram
Biodistribution: Flu tumor [2]: 0.7 ± 0.01 % injected dose/gram
Biodistribution: Lacrimal gland [2]: 0.14 ± 0.08 % injected dose/gram
Biodistribution: PiP tumor [2]: 35 ± 5.0 % injected dose/gram
Biodistribution: Salivary gland [2]: 0.08 ± 0.04 % injected dose/gram
Biodistribution: kidneys [2]: 2.2 ± 0.3 % injected dose/gram
Biodistribution: spleen [2]: 0.2 ± 0.1 % injected dose/gram
Biodistribution: stomach [2]: 0.2 ± 0.07 % injected dose/gram
Biodistribution: thyroid [2]: 0.14 ± 0.1 % injected dose/gram
Biodistribution: Blood (24 h, No CI): 0.02 ± 0.01 % injected dose/gram
Biodistribution: Flu tumor (24 h, No CI): 0.04 ± 0.02 % injected dose/gram
Biodistribution: Lacrimal gland (24 h, No CI): 0.5 ± 0.2 % injected dose/gram
Biodistribution: PiP tumor (24 h, No CI): 51 ± 7 % injected dose/gram
Biodistribution: Salivary gland (24 h, No CI): 0.3 ± 0.3 % injected dose/gram
Biodistribution: kidneys (24 h, No CI): 31 ± 14 % injected dose/gram
Biodistribution: spleen (24 h, No CI): 0.7 ± 0.4 % injected dose/gram
Biodistribution: stomach (24 h, No CI): 0.05 ± 0.03 % injected dose/gram
Biodistribution: Blood [3]: 0.001 ± 0.001 % injected dose/gram
Biodistribution: Flu tumor [3]: 0.02 ± 0.01 % injected dose/gram
Biodistribution: Lacrimal gland [3]: 0.02 ± 0.04 % injected dose/gram
Biodistribution: PiP tumor [3]: 33 ± 6 % injected dose/gram
Biodistribution: Salivary gland [3]: 0.02 ± 0.01 % injected dose/gram
Biodistribution: kidneys [3]: 0.3 ± 0.03 % injected dose/gram
Biodistribution: spleen [3]: 0.05 ± 0.04 % injected dose/gram
Biodistribution: stomach [3]: 0.06 ± 0.02 % injected dose/gram
Biodistribution: thyroid [3]: 0.04 ± 0.08 % injected dose/gram
PSMA+ tumor uptake (in words) (Tables 1, 2, and 3): high PSMA+ tumor uptake
kidney uptake (in words) (Tables 1, 2, and 3): high initial kidney uptake which clears over time

O=C(O)CC[C@H](NC(=O)N[C@@H](CCC(=O)NCCc1ccc([125I])cc1)C(=O)O)C(=O)O [[^125I]HS-549]
Biodistribution: Blood (1 h, No CI): 5.9 ± 1.0 % injected dose/gram
Biodistribution: Flu tumor (1 h, No CI): 2.2 ± 0.5 % injected dose/gram
Biodistribution: PiP tumor (1 h, No CI): 78 ± 19 % injected dose/gram
Biodistribution: kidneys (1 h, No CI): 106 ± 19 % injected dose/gram
Biodistribution: spleen (1 h, No CI): 6.8 ± 3.4 % injected dose/gram
Biodistribution: stomach (1 h, No CI): 0.9 ± 0.2 % injected dose/gram
Biodistribution: thyroid (1 h, No CI): 1.2 ± 0.4 % injected dose/gram
Biodistribution: Blood [1]: 2.6 ± 0.6 % injected dose/gram
Biodistribution: Flu tumor [1]: 1.0 ± 0.45 % injected dose/gram
Biodistribution: Lacrimal gland [1]: 1.1 ± 0.4 % injected dose/gram
Biodistribution: PiP tumor [1]: 31 ± 4.2 % injected dose/gram
Biodistribution: Salivary gland [1]: 1.0 ± 0.2 % injected dose/gram
Biodistribution: kidneys [1]: 12.1 ± 1.9 % injected dose/gram
Biodistribution: spleen [1]: 0.8 ± 0.2 % injected dose/gram
Biodistribution: stomach [1]: 0.8 ± 0.3 % injected dose/gram
Biodistribution: thyroid [1]: 5.6 ± 9.2 % injected dose/gram
Biodistribution: Blood [4]: 0.8 ± 0.1 % injected dose/gram
Biodistribution: Flu tumor [4]: 0.3 ± 0.15 % injected dose/gram
Biodistribution: Lacrimal gland [4]: 0.5 ± 0.3 % injected dose/gram
Biodistribution: PiP tumor [4]: 39 ± 4 % injected dose/gram
Biodistribution: Salivary gland [4]: 0.4 ± 0.2 % injected dose/gram
Biodistribution: kidneys [4]: 2.8 ± 0.8 % injected dose/gram
Biodistribution: spleen [4]: 0.4 ± 0.1 % injected dose/gram
Biodistribution: stomach [4]: 0.3 ± 0.1 % injected dose/gram
Biodistribution: thyroid [4]: 0.3 ± 0.1 % injected dose/gram
Biodistribution: Blood (4 h, No CI): 2.9 ± 0.3 % injected dose/gram
Biodistribution: Flu tumor (4 h, No CI): 1.5 ± 0.3 % injected dose/gram
Biodistribution: PiP tumor (4 h, No CI): 75 ± 13 % injected dose/gram
Biodistribution: kidneys (4 h, No CI): 97 ± 39 % injected dose/gram
Biodistribution: spleen (4 h, No CI): 2.7 ± 0.8 % injected dose/gram
Biodistribution: stomach (4 h, No CI): 0.5 ± 0.2 % injected dose/gram
Biodistribution: thyroid (4 h, No CI): 0.7 ± 0.3 % injected dose/gram
Biodistribution: Blood (21 hours (footnote b), No CI): 1.4 ± 0.4 % injected dose/gram
Biodistribution: Flu tumor (21 hours (footnote b), No CI): 0.4 ± 0.2 % injected dose/gram
Biodistribution: PiP tumor (21 hours (footnote b), No CI): 23 ± 2 % injected dose/gram
Biodistribution: kidneys (21 hours (footnote b), No CI): 3.1 ± 1.6 % injected dose/gram
Biodistribution: spleen (21 hours (footnote b), No CI): 0.3 ± 0.1 % injected dose/gram
Biodistribution: stomach (21 hours (footnote b), No CI): 0.1 ± 0.04 % injected dose/gram
Biodistribution: thyroid (21 hours (footnote b), No CI): 0.4 ± 0.05 % injected dose/gram
Biodistribution: Blood [3]: 0.6 ± 0.3 % injected dose/gram
Biodistribution: Flu tumor [3]: 0.2 ± 0.2 % injected dose/gram
Biodistribution: Lacrimal gland [3]: 0.2 ± 0.1 % injected dose/gram
Biodistribution: PiP tumor [3]: 35 ± 5 % injected dose/gram
Biodistribution: Salivary gland [3]: 0.2 ± 0.1 % injected dose/gram
Biodistribution: kidneys [3]: 0.7 ± 0.3 % injected dose/gram
Biodistribution: spleen [3]: 0.1 ± 0.07 % injected dose/gram
Biodistribution: stomach [3]: 0.1 ± 0.05 % injected dose/gram
Biodistribution: thyroid [3]: 0.5 ± 0.8 % injected dose/gram
